According to patent publication US6682931B2, “Recovering cryopreserved conifer embryogenic cultures” (MeadWestvaco Corporation, priority 1999, dated 2004):

Tested on: loblolly pine (Pinus taeda) embryogenic cell lines
Experiment: Percent increase in fresh weight of pine embryogenic cell lines retrieved from cryopreservation on post-cryopreservation recovery medium (Examples 1 and 2)
Assay type: cell-based
Settings: for Additional Culture Growth on DCR1 + ABA: 30 mg/l ABA vs medium without ABA
Experimental: Each embryogenic culture was cryopreserved as follows. Embryogenic tissue (7 to 14 days since the last subculture) was dispersed in liquid DCR1 medium (the DCR1 medium of Table I without the GELRITE) which contained 0.4 molar sorbitol as described in U.S. Pat. No. 5,506,136. The amount of embryogenic tissue used was sufficient to result in a 40% suspension (i.e., 4 ml volume of embryogenic tissue added to 6 ml of liquid medium). An Erlenmeyer flask containing the suspension was incubated for 24 hours in the dark on a gyrotory shaker (100 rpm), and then placed on ice. Five aliquots of the cryoprotective chemical dimethyl sulfoxide (DMSO) were aseptically added to the suspension to bring the final concentration of DMSO to 10% (vol/vol). One milliliter aliquots of the suspension containing DMSO were then transferred to 2 ml NALGENE® cryogenic vials (manufactured by the Nalge Co.), placed in programmable freezer (Model 9000 manufactured by Gordinier Electronics) and cooled to −35° C. at a rate of 0.33° C. per minute. The cultures were cryopreserved by immersing the cryogenic vials in liquid nitrogen inside a cryogenic storage tank (Model #CY50945 manufactured by Thermolyne, Inc.). The cultures remained in cryogenic storage for at least 36 months prior to retrieval.
The cryogenic vials were retrieved from the cryogenic storage tank and placed in 44° C. water until the ice crystals in the frozen embryogenic cultures were melted. The thawed culture from each cryogenic vial was aseptically pipetted and dispensed onto a sterile 7 cm×7 cm NITEX nylon 35 μm pore size membrane (commercially available from Sefar, Inc.) which had been placed on top of two sterile filter papers (Whatman no. 2 commercially available from Whatman International Ltd.) to absorb excess liquid from the culture and membrane. Each nylon membrane containing embryogenic culture was then transferred to a DCR1 medium which served as a temporary recovery medium for 24 hours in order to lower the concentration of cryoprotective chemicals and osmotic agents contained in the culture.
Each nylon membrane containing embryogenic tissue was then transferred to one of two post-cryopreservation medium treatments. One treatment was DCR1 medium without ABA. The other treatment was DCR1 medium with 30 mg/l of ABA. The initial fresh weight (FW0) of the embryogenic tissue was measured aseptically at this time. There were 3 plates (each derived from an individual cryogenic vial) per treatment and cell line. The embryogenic cultures on membranes were transferred after 24 hours, and thereafter, every 14 days to a new plate of the same medium. The culture environment during post-cryopreservation recovery and growth was 23° C. in the dark. At 25 days after retrieval from cryogenic storage the final fresh weight (FWF) of the proliferating embryogenic culture was measured. The growth of the embryogenic tissue during the post-cryopreservation treatments was calculated as a percent increase in fresh weight relative to the initial fresh weight as follows: ((FWF−FW0)/FW0)*100.
Each cell line was cryopreserved as follows. The liquid suspension cultures (7 days since the last subculture) were aseptically centrifuged at 1500 rpm for 10 minutes (400 g-force) to separate the embryogenic tissue from the liquid medium. The supernatant medium was removed from the embryogenic tissue. To the remaining volume of centrifuged embryogenic tissue, was added an equal volume of liquid DCR1 medium containing 0.8 molar sorbitol, so that the final sorbitol concentration was 0.4 molar. An Erlenmeyer flasks containing each suspension was incubated for 24 hours in the dark on a gyrotory shaker (100 rpm), and then placed on ice. The cryoprotective chemical DMSO was added to the chilled cultures at one time to bring the final concentration of DMSO to 10% (vol/vol). […]

CC1=CC(=O)CC(C)(C)[C@@]1(O)/C=C/C(C)=C\C(=O)O [ABA, abscisic acid]
Additional Culture Growth on DCR1 + ABA, overall (Average and Increase lines, all ten cell lines, 30 mg/l ABA): yes | Increase of overall average percent increase in fresh weight on medium with ABA compared to medium without ABA (all ten cell lines, 30 mg/l ABA): 70% | Average Percent Increase in Fresh Weight, average of all ten cell lines (average of cell lines A1-A6 and B1-B4, DCR1 + 30 mg/l ABA): 2469% | Additional Culture Growth on DCR1 + ABA (cell line A1): yes | Average Percent Increase in Fresh Weight (cell line A1, DCR1 + 30 mg/l ABA, 25 days after retrieval): 270% | Additional Culture Growth on DCR1 + ABA (cell line A2): yes | Average Percent Increase in Fresh Weight (cell line A2, DCR1 + 30 mg/l ABA, 25 days after retrieval): 7484% | Additional Culture Growth on DCR1 + ABA (cell line A3): yes | Average Percent Increase in Fresh Weight (cell line A3, DCR1 + 30 mg/l ABA, 25 days after retrieval): 4065% | Total fresh weight of embryogenic tissue from three cryogenic vials (cell line A3, medium with ABA (30 mg/l)): 5.17 grams | Additional Culture Growth on DCR1 + ABA (cell line A4): yes | Average Percent Increase in Fresh Weight (cell line A4, DCR1 + 30 mg/l ABA, 25 days after retrieval): 1652% | Additional Culture Growth on DCR1 + ABA (cell line A5): yes | Average Percent Increase in Fresh Weight (cell line A5, DCR1 + 30 mg/l ABA, 25 days after retrieval): 6479% | Additional Culture Growth on DCR1 + ABA (cell line A6): yes | Average Percent Increase in Fresh Weight (cell line A6, DCR1 + 30 mg/l ABA, 25 days after retrieval): 1221% | Additional Culture Growth on DCR1 + ABA (cell line B1): no | Additional Culture Growth on DCR1 + ABA (cell line B2): yes | Additional Culture Growth on DCR1 + ABA (cell line B3): yes | Average Percent Increase in Fresh Weight (cell line B3, DCR1 + 30 mg/l ABA, 26 days after retrieval): 3259% | Additional Culture Growth on DCR1 + ABA (cell line B4): yes
